Results: US20090197916A1, “SOLUBLE EPOXIDE HYDROLASE INHIBITORS FOR TREATMENT OF METABOLIC SYNDROME AND RELATED DISORDERS” (Arete Therapeutics, Inc, priority 2007, published 2009)
One block for each compound: values may come before it.

Columns and labels:
sEH = target: T1, sEH (Homo sapiens, UniProt P34913); test: sEH inhibition, fluorescent assay with CMNPC substrate (percent inhibition and IC50); assay type: biochemical; details: for IC50: procedure similar to the percent inhibition procedure
T1 sequence (P34913 1-555): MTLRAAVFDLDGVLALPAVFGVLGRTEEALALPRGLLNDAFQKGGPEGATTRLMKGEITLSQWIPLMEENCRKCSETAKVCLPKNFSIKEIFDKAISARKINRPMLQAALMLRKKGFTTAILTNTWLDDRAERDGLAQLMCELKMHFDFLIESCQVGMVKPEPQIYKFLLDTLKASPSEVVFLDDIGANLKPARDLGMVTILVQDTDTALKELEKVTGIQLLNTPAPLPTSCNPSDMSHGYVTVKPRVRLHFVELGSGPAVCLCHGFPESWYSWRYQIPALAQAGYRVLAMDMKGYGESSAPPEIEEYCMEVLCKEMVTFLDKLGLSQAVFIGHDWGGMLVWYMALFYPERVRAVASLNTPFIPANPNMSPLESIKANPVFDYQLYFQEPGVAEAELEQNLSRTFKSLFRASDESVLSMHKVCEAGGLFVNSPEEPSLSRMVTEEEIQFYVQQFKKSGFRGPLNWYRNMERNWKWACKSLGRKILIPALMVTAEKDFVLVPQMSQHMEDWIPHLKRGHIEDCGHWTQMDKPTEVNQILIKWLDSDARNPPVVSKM
Protocol: The substrate for the reaction was:
Therefore, well A2 would refer to a well in the first row and second column of the plate.
In a black 96 well plate, all the wells are filled with 150 μL of buffer A (Buffer A: Bis/Tris HCl, 25 mM, pH 7.0 plus 0.1 mg/mL BSA). DMSO (2 microliters) was added in well A2 and A3, and then was added 2 μL of inhibitor solution in A1 and A4 through A12. […] The plate was incubated for 5 minutes in the plate reader at 30° C. During incubation, the working solution of substrate was prepared by mixing 3.68 mL of buffer A with 266 μL of 0.5 mM substrate solution. At t=0, 30 μL of working substrate solution was added and readings were started ([S]final: 5 μM).

[1] = test system: Zucker diabetic fatty rats (ZDF); test: Model 4: Zucker diabetic fatty rats; assay type: in vivo; details: daily dose of 100 mg/kg for four weeks, vs vehicle
Protocol: All protocols were approved by the institutional animal care and use committee at Arête Therapeutics. Eight weeks old male Zucker diabetic fatty rats (ZDF) (Charles River Laboratory, Hollister, Calif.) with a 270 g body weight on average used in this study were fed a normal chow. Baseline blood pressure and body weight were measured before surgery. Animals were anesthetized by inhalation of 2% isoflurane. The animals were randomly divided into 2 groups; […] Four animals were assigned to the vehicle group and three to the Compound 2 group. After 4 weeks of treatment, systolic blood pressure was measured in conscious mice using a tail-cuff system (Kent Scientific Corporation, Torrington, Conn.), and the animals were euthanized. Blood samples were collected via cardiac puncture for the measurement of a serum cholesterol profile (IDEXX Veterinary Services, West Sacramento, Calif.) and tissues were removed for analysis. All results are presented as the mean and standard error (SEM). Comparison between the vehicle and Compound 2 treatment groups was performed using Student's t test.

[2] = test system: wild-type mice on high-fat, high-fructose diet (HF) or standard chow (NC); test: Metabolic Syndrome Model 2: diet induced obesity mouse model; assay type: in vivo; details: for weight gain, HF-fed animals / total plasma cholesterol / glucose tolerance (GTT) / statistical significance of attenuated weight gain: HF diet; for weight gain, HF-fed animals: 60 mg/kg twice daily (Losartan 10 mg/kg/day in drinking water); for weight gain, HF-fed animals / total plasma cholesterol / glucose tolerance (GTT): vs vehicle; for total plasma cholesterol: 60 mg/kg twice daily, 4 weeks; for glucose tolerance (GTT): after 4 weeks of dosing 60 mg/kg twice daily; for statistical significance of attenuated weight gain: from second week of dose administration
Excerpt: Seven groups of 10 wild-type mice were entered onto the study. Five groups were placed on an ad libitum high-fat, high-fructose diet (HF); two groups were fed ad libitum with standard rodent chow and water (NC). Animals were maintained on the respective diet for the entire 12 weeks of the study. […] Losartan (Cozaar®) is a compound approved by the FDA for the treatment of hypertension, reducing the risk of stroke in a patient with hypertension and left ventricular hypertrophy, and treatment of diabetic nephropathy with an elevated serum […] and proteinuria in patients with type 2 diabetes and a history of hypertension.
Glucose tolerance tests (GTTs) were performed in Week 7 (prior to the start of dosing) and Week 12 (after 4 weeks of dosing). Body weights were recorded semi-weekly throughout the study whereas chow consumption and liquid intake were recorded weekly. Plasma was collected from untreated (Week 7, prior to the start of dosing) and treated (at the end of in-life) animals and submitted for the determination of plasma cholesterol. At the end of the in-life period, animals were sacrificed after terminal bleeds and discarded; no necropsies were performed.

[3] = test system: male C57Bl/6 mice on high-fat, high-fructose diet; test: Metabolic Syndrome Model 1: diet induced obesity mouse model; assay type: in vivo
Protocol: A diet induced obesity mouse model was used to evaluate the efficacy of the sEH inhibitor 1-[1-(methylsulfonyl)piperidin-4-yl]-3-(adamant-1-yl)urea (Compound 5) for the treatment of metabolic syndrome and the adverse conditions related thereto.
The study was performed using 7-8 week old male C57Bl/6 mice. The mice were acclimated a minimum of five days prior to the start of study and were housed five per cage in microisolators in a 12:12 light/dark cycle (all work was done in a BioBubble Hood™). Water and food was provided ad libitum.
The mice were provided a high-fat, high-fructose diet for a total of 11 weeks, within the first 5 weeks the animals became obese, insulin resistant, have increased plasma cholesterol and mildly hypertensive. The mice were separated into three groups, each group consisting of 10 mice after the first 5 weeks on the high-fat, high-fructose diet. The mice continued to receive the high-fat, high-fructose diet but also began to receive treatment for the remaining 6 weeks of the study for a total of 11 weeks of study. During the treatment phase, Group 1 was administered vehicle alone, perorally, twice a day for six weeks (control group); group 2 was administered 20 mg/kg of Compound 5, perorally, twice a day for six weeks; group 3 was administered 60 mg/kg Compound 5, perorally, twice a day for six weeks. At intervals of 3 and 5.5 weeks after the beginning of the treatment phase of the study, glucose tolerance tests were administered. At the beginning of the treatment phase and after 5 weeks of dosing, samples were collected for plasma cholesterol measurements. Blood pressure was measured 3 weeks after the start of the treatment phase of the study.
HF diet with 45% fat by calorie (Research Diets, D12451)
High-Fructose (degassed 7up)
Group 2) High-Fat Diet+Compound 5-20 mg/kg p.o. (perorally) b.i.d. (twice a day)
Group 3) High-Fat Diet+Compound 5-60 mg/kg p.o. (perorally) b.i.d. (twice a day)
Throughout duration of the study body weight, food, and fructose consumption was measured twice a week. Blood pressure and heart rate was measured one week.
Mice were randomized on the basis of average Body Weight in each of the three groups (n=10/gp).
GTT—Animals were fasted for 4 hours followed by a glucose load (2 g/kG body wt). The tip (3 mm) of the tail was excised and blood samples were taken for glucose clearance measurements (Glucometer) at T=0, 15, 30, 60, 90, and 120 minutes. This test determines if the animal is has glucose intolerance.
Plasma was analyzed using a lipid and chem panel analysis (Lipid-total cholesterol, HDL, LDL and Triglycerides, FFA).
p.o. (perorally) dosing of Compound 5 at 20 mg/kg and at 60 mg/kg begins b.i.d. twice a day) for […]
Measure blood pressure using a non-invasive CODA 6 occlusion cuff system

SMILES: CC(=O)N1CCC(NC(=O)NC23CC4CC(CC(C4)C2)C3)CC1 [Compound 2, 1-[1-(acetyl)piperidin-4-yl]-3-(adamant-1-yl) urea]
HDL level [1]: decreased | LDL [1]: significantly decreased | blood glycated hemoglobin (HbA1c %) [1]: significantly decreased | fasting plasma glucose level [1]: significantly decreased | total cholesterol [1]: significantly decreased | triglycerides (TGs) [1]: significantly decreased

SMILES: CC(=O)N1CCC(NC(=O)Nc2ccc(C(F)(F)F)cc2)CC1 [Compound 3, 1-[1-(acetyl)piperidin-4-yl]-3-(4-trifluoromethylphenyl) urea]
weight gain, HF-fed animals [2]: gained less weight | total plasma cholesterol [2]: slight elevation of total cholesterol | glucose tolerance (GTT) [2]: statistically significant improvements in glucose tolerance | statistical significance of attenuated weight gain [2]: statistically significant

SMILES: CS(=O)(=O)N1CCC(NC(=O)Nc2ccc(C(F)(F)F)cc2)CC1 [Compound 4, 1-[1-(methylsulfonyl)piperidin-4-yl]-3-(4-trifluoromethylphenyl) urea]
weight gain, HF-fed animals [2]: gained less weight | total plasma cholesterol [2]: decreases in total plasma cholesterol level, although not statistically significant | glucose tolerance (GTT) [2]: statistically significant improvements in glucose tolerance

SMILES: CS(=O)(=O)N1CCC(NC(=O)NC23CC4CC(CC(C4)C2)C3)CC1 [Compound 5, 1-[1-(methylsulfonyl)piperidin-4-yl]-3-(adamant-1-yl) urea]
cholesterol level ([3]; 60 mg/kg twice a day, vs vehicle, p<0.01): statistically lower cholesterol level | blood pressure ([3]; 60 mg/kg twice a day, vs vehicle, p<0.05): statistically significantly lower blood pressure | heart rate ([3]; 20 and 60 mg/kg b.i.d.): did not significantly alter heart rate | systolic and diastolic blood pressure ([3]; 20 and 60 mg/kg b.i.d., 3 weeks of treatment, vs control): reduced | serum glucose in GTT ([3]; 20 and 60 mg/kg p.o. b.i.d., relative to control group): decrease in serum glucose | area under the curve for plasma glucose after interperitonial glucose ([3]; both 20 and 60 mg/kg twice a day, vs vehicle and start of treatment, p<0.01): statistically lower area under the curve | body weight ([3]; either dose (20 or 60 mg/kg p.o. b.i.d.), vs vehicle): stabilization in body weight | plasma cholesterol levels ([3]; relative to control group, 5 weeks of dosing): reduced | mean blood pressure ([3]; vs control group): similarly reduced | weight gain, HF-fed animals [2]: gained less weight | total plasma cholesterol [2]: statistically significant decreases in cholesterol | glucose tolerance (GTT) [2]: statistically significant improvements in glucose tolerance | statistical significance of attenuated weight gain [2]: statistically significant | body weights, animals on NC ([2]; NC diet, Compound 5 60 mg/kg twice daily vs vehicle): similar

SMILES: O=C(NC1CCCCC1)NC1CCN(C(=O)c2ccccn2)CC1 [Compound 12, 1-cyclohexyl-3-(1-picolinoylpiperidin-4-yl)urea]
IC50 (sEH): 5.3 nM

SMILES: O=C(Nc1ccc(C(F)(F)F)cc1)Nc1ccc(S(=O)(=O)c2ccccc2)cc1 [Compound 18, 1-(4-benzenesulfonyl-phenyl)-3-(4-trifluoromethyl-phenyl)-urea]
IC50 (sEH): 3.8 nM

SMILES: CCCCc1nc(Cl)c(CO)n1Cc1ccc(-c2ccccc2-c2nn[nH]n2)cc1 [Losartan, reference compound]
weight gain, HF-fed animals [2]: gained less weight

Next, values leading:

% Inhibition (sEH; Concentration 50 nM): 82%
SMILES: O=C(Nc1ccc(C(F)(F)F)cc1)Nc1cccc(C(=O)N2CCOCC2)c1 [Compound 1, 1-[3-(morpholino-4-carbonyl)phenyl]-3-(4-trifluoromethylphenyl) urea]

IC50 (sEH): 0.8 nM
SMILES: CC(C)(C)CC(=O)N1CCC(NC(=O)Nc2ccc(C(F)(F)F)cc2)CC1 [Compound 7, 1-(1-(3,3-dimethylbutanoyl)piperidin-4-yl)-3-(4-(trifluoromethyl)phenyl)urea]

IC50 (sEH): 10.1 nM
SMILES: CC(=O)N1CCC(NC(=O)Nc2cccc(C(F)(F)F)c2)CC1 [Compound 9, 1-(1-Acetyl-piperidin-4-yl)-3-(3-trifluoromethyl-phenyl)-urea]

IC50 (sEH): 0.8 nM
SMILES: CC(C)OC(=O)N1CCC(NC(=O)Nc2ccc(C(F)(F)F)cc2)CC1 [Compound 11, isopropyl 4-(3-(4-(trifluoro-methyl)phenyl)ureido)-piperidine-1-carboxylate]

IC50 (sEH): 1.6 nM
SMILES: CC(C)S(=O)(=O)N1CCC(NC(=O)Nc2ccc(OC(F)(F)F)cc2)CC1 [Compound 13, 1-(1-(isopropylsulfonyl)piperidin-4-yl)-3-(4-(trifluoromethoxy)phenyl)urea]

IC50 (sEH): 7.5 nM
SMILES: O=C(Nc1ccc(C(F)(F)F)cc1)NC1CCN(c2ccc(C(F)(F)F)cn2)CC1 [Compound 14, 1-(4-(trifluoromethyl)-phenyl)-3-(1-(5-(trifluoromethyl)-pyridin-2-yl)piperidin-4-yl)urea]

IC50 (sEH): 2.1 nM
SMILES: CC(C)OC(=O)N1CCC(NC(=O)Nc2ccc(OC(F)(F)F)cc2)CC1 [Compound 15, isopropyl 4-(3-(4-(trifluoromethoxy)phenyl)ureido)piperidine-1-carboxylate]

IC50 (sEH): 7.1 nM
SMILES: O=C(Nc1ccc(C(F)(F)F)cc1)Nc1ccc(Oc2ccccc2)nc1 [Compound 16, 1-(6-phenoxypyridin-3-yl)-3-(4-(trifluoromethyl)phenyl)urea]

IC50 (sEH): 6.2 nM
SMILES: CC(=O)NC1CCC(NC(=O)Nc2ccc(C(F)(F)F)cc2)CC1 (stereo not drawn) [Compound 17, N-(4-(3-(4-(trifluoromethyl)phenyl)ureido)cyclohexyl)acetamide]
